Data from patent US7772209B2, “Antifolate combination therapies” (Eli Lilly and Company, priority 2000, dated 2010).

How the values were obtained:
[1] = test system: human MX-1 breast carcinoma; test: Tumor growth delay in human MX-1 breast carcinoma xenograft in female nude mice; assay type: in vivo
Method: To assess the effect of a methylmalonic acid lowering agent, alone or in combination with folic acid on the antitumor efficacy of an antifolate in a human tumor xenograft model, female nude mice bearing human MX-1 breast carcinoma were treated with ALIMTA alone or along with super-physiologic doses of folic acid or vitamin B12 (cobalamin).
(§1) The animals were maintained on sterilized standard lab chow ad libitum and sterilized water ad libitum. The human MX-1 tumor cells (5×10^6) obtained from donor tumors were implanted subcutaneously in a thigh of female nude mice 8- to 10-weeks old. Beginning on day 7 post tumor cell implantation, the animals were treated with ALIMTA (100 mg/kg or 150 mg/kg) once daily on days 7 through 11 and 14 through 18 by intraperitoneal injection alone or along with folic acid (6 mg/kg or 60 mg/kg) and/or vitamin B12 (165 mg/kg) by intraperitoneal injection on the same schedule.
(§2) Tumor response was monitored by tumor volume measurements twice weekly over the course of the experiment. Toxicity was monitored by body weight measurements made at the same time as the tumor volume measurements. Tumor growth delay was the difference in days for the treated and the controls tumors to reach 1000 mm^3.

[2] = grade 3/4 toxic events, N = 246, not supplemented
Method: One to two weeks prior to administration of ALIMTA urine is collected and blood is drawn from a human subject; and vitamin metabolite levels, methylmalonic acid and homocysteine, are determined. Homocysteine levels are determined in blood by a fluorescent polarization immunoassay kit manufactured by Abbot Laboratories. Methylmalonic acid levels are determined by urine levels using a 24 hour urine collection kit available from Biolab Medical Unit (a United Kingdom company). Additionally urine and blood may be collected one week prior to administration of ALIMTA (after at least 5 days of folic acid supplementation and at least 1 week vitamin B12 supplementation), and up to 4 days prior to every cycle.
For purposes of this study, patients should take oral folic acid daily beginning approximately 1 to 3 weeks before treatment with ALIMTA plus cisplatin or cisplatin alone and continuing daily until discontinuation from study therapy.
Vitamin B12 will be obtained and administered as a 1000 μg intramuscular injection. A vitamin B12 injection must be administered approximately 1 to 3 weeks before treatment with ALIMTA and should be repeated approximately every 9 weeks until the patient discontinues from study therapy.
Folic acid supplementation, 350-600 μg or equivalent should be taken orally daily beginning approximately 1 to 3 weeks prior to the first dose of MTA plus cisplatin and continue daily until the patient discontinues from study therapy. A vitamin B12 injection, 1000 μg, must be given intramuscularly approximately 1 to 3 weeks prior to the first dose of ALIMTA and should be repeated approximately every 9 weeks until the patient discontinues from study therapy.
The data to be compared are: • 1) Patient numbers and baseline demographic data for those supplemented from baseline. • 2) Homocysteine and methylmalonic acid levels, levels at baseline, prior to first dose, prior to second dose, and prior to each therapy cycle depending of the type of cancer under study. • 3) Grade 3 and 4 hematologic toxicity in these fully supplemented patients. • 4) Grade 3 and 4 nonhematologic toxicity in these fully supplemented patients.
Cyanocobalamin is used as the methylmalonic acid lowering agent in these studies.

[3] = Clinical response to chemotherapy in chemonaive patients; assay type: in vivo, human; conditions: responders out of group size
From the text: Additionally, sixty-two chemonaive patients requiring chemotherapeutic treatment were divided into two groups.

[4] = Body weight as general measure of toxicity in MX-1 tumor-bearing nude mice
Method: as §1, §2
Body weight was used as a general measure of toxicity for each of the treatment regimens. The body weight loss pattern reflected the treatment regimens with weight decrease during the treatment times of days 7 through 11 and 14 through 18 with some weight recovery during the intervening two days. The weight loss due to ALITMA was dose dependent but overall minor (3%).

## Nc1nc2[nH]cc(CCc3ccc(C(=O)N[C@@H](CCC(=O)O)C(=O)O)cc3)c2c(=O)[nH]1 [ALIMTA, pemetrexed disodium]
[1]; ALIMTA 100 mg/kg ip once daily days 7-11 and 14-18, alone, time to reach 1000 mm^3 vs controls
  Tumor growth delay: 17 days
[1]; ALIMTA 150 mg/kg ip once daily days 7-11 and 14-18, alone
  Tumor growth delay: 21 days
[2]
  Percent of occurrences prior to B12/folic acid treatment: Diarrhea: 6%
  Percent of occurrences prior to B12/folic acid treatment: Hematologic Toxicity/Non-Hematologic Toxicity: 37%
  Percent of occurrences prior to B12/folic acid treatment: Mucositis: 5%
  Percent of occurrences prior to B12/folic acid treatment: Neutropenia: 32%
  Percent of occurrences prior to B12/folic acid treatment: Neutropenia and Diarrhea: 3%
  Percent of occurrences prior to B12/folic acid treatment: Neutropenia and Infection: 2%
  Percent of occurrences prior to B12/folic acid treatment: Neutropenia and Mucositis: 3%
[3]
  Patients who responded to the chemotherapy: 1 out of 17
[4]; mouse, in vivo
  Body weight loss: 3%

## Nc1nc2ncc(CNc3ccc(C(=O)N[C@@H](CCC(=O)O)C(=O)O)cc3)nc2c(=O)[nH]1 [Folic acid, folic acid]
[1]; folic acid 6 mg/kg ip alone, same schedule
  Tumor growth delay: 7 days
[1]; folic acid 60 mg/kg ip alone, same schedule
  Tumor growth delay: 12 days

## vitamin B12
[1]; vitamin B12 165 mg/kg ip alone, same schedule
  Tumor growth delay: 12 days
[4]; vitamin B12 administration
  Body weight change: did not prevent weight gain
